Source: ChEMBL document CHEMBL5291721, “A preclinical secondary pharmacology resource illuminates target-adverse drug reaction associations of marketed drugs” (Nat Commun, 2023)

Columns and labels:
Adenosine receptor A2a = Adenosine receptor A2a (Homo sapiens, UniProt P29274)
Adenosine receptor A3 [1] = target: T1, Adenosine receptor A3 (Homo sapiens, UniProt P0DMS8)
T1 sequence (P0DMS8 whole entry): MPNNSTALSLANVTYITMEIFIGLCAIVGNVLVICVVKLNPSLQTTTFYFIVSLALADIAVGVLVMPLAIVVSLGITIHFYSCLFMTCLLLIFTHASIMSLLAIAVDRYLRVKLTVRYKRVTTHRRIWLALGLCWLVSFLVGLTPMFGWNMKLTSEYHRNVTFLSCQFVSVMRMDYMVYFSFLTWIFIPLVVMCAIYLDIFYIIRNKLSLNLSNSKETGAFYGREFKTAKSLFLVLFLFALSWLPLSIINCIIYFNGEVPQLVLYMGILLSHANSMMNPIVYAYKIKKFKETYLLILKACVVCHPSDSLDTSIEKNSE

Adenosine receptor A3 [2] = target: T1, Adenosine receptor A3; remark: listed apart in the source
[3] = target: T2, Alpha-1A adrenergic receptor (Homo sapiens, UniProt P35348); type: functional, cell-based
T2 sequence (P35348 whole entry): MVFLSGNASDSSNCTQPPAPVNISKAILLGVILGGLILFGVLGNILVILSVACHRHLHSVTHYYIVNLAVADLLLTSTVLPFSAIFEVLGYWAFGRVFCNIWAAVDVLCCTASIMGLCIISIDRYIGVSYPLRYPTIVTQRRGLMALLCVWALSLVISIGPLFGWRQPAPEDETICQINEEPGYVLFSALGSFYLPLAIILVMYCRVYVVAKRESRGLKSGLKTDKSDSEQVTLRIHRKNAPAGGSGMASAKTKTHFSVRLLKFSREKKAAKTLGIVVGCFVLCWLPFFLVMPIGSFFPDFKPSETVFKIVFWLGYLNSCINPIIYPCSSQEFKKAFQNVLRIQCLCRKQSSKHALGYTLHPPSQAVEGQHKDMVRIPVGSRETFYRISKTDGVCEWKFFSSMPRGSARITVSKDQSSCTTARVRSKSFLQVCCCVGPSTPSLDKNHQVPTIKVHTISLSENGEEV

[4] = target: T2, Alpha-1A adrenergic receptor; type: functional, cell-based; remark: listed apart in the source
[5] = target: Beta-2 adrenergic receptor (Homo sapiens, UniProt P07550); type: functional, cell-based
Vasopressin V1a receptor = Vasopressin V1a receptor (Homo sapiens, UniProt P37288)
[6] = target: T3, Muscarinic acetylcholine receptor M1 (Homo sapiens, UniProt P11229); type: functional, cell-based
T3 sequence (P11229 whole entry): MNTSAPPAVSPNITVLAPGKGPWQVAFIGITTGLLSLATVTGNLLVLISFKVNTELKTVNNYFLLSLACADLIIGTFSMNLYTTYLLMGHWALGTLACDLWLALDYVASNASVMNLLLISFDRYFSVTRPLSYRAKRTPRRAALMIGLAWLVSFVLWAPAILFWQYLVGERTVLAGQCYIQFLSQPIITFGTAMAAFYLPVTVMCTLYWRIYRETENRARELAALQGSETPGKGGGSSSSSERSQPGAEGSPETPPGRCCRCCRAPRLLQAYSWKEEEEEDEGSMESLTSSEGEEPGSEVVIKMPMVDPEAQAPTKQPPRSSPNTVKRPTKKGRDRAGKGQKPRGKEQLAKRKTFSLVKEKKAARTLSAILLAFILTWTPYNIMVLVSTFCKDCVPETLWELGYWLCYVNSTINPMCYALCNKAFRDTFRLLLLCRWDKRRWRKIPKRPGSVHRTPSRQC

[7] = target: T4, Muscarinic acetylcholine receptor M2 (Homo sapiens, UniProt P08172); type: functional, cell-based
T4 sequence (P08172 whole entry): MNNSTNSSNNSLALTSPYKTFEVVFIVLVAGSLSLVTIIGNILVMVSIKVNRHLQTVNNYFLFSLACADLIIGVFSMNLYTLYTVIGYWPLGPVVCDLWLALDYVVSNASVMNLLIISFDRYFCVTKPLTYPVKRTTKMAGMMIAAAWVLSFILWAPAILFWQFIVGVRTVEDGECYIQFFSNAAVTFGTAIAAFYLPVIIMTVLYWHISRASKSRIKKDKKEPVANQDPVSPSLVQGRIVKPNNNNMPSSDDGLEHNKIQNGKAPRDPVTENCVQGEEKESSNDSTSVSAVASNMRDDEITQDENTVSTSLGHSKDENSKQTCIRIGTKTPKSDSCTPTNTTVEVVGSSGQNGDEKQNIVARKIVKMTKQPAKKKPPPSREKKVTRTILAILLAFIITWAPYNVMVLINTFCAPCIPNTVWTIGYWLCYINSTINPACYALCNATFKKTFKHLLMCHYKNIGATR

[8] = target: 5-hydroxytryptamine receptor 2B (Homo sapiens, UniProt P41595); type: functional, cell-based
Motilin receptor = Motilin receptor (Homo sapiens, UniProt O43193)
[9] = target: 3',5'-cyclic-AMP phosphodiesterase 4D (Homo sapiens, UniProt Q08499); type: functional
Mu-type opioid receptor = Mu-type opioid receptor (Homo sapiens, UniProt P35372)
[10] = target: cGMP-inhibited 3',5'-cyclic phosphodiesterase 3A (Homo sapiens, UniProt Q14432); type: functional
[11] = target: T2, Alpha-1A adrenergic receptor; type: functional, cell-based; remark: listed apart in the source
[12] = target: Gamma-aminobutyric acid receptor subunit alpha-1 (Rattus norvegicus, UniProt P62813)
Note: assay procedure not described here.

Chain of 5-hydroxytryptamine receptor 2B (P41595 whole entry): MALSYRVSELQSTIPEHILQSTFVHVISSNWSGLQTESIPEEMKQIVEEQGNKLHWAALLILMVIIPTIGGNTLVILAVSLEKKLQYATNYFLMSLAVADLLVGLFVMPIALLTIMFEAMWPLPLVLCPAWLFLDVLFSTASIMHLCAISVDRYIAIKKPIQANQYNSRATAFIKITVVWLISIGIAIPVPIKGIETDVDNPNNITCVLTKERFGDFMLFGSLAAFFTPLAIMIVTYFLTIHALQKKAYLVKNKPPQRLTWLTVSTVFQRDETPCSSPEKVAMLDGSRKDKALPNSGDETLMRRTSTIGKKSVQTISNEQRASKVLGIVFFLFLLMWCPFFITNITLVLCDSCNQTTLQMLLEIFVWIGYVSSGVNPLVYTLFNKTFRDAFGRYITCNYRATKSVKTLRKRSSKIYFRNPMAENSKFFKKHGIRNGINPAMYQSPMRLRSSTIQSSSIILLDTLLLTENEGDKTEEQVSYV
Chain of 3',5'-cyclic-AMP phosphodiesterase 4D (Q08499 whole entry): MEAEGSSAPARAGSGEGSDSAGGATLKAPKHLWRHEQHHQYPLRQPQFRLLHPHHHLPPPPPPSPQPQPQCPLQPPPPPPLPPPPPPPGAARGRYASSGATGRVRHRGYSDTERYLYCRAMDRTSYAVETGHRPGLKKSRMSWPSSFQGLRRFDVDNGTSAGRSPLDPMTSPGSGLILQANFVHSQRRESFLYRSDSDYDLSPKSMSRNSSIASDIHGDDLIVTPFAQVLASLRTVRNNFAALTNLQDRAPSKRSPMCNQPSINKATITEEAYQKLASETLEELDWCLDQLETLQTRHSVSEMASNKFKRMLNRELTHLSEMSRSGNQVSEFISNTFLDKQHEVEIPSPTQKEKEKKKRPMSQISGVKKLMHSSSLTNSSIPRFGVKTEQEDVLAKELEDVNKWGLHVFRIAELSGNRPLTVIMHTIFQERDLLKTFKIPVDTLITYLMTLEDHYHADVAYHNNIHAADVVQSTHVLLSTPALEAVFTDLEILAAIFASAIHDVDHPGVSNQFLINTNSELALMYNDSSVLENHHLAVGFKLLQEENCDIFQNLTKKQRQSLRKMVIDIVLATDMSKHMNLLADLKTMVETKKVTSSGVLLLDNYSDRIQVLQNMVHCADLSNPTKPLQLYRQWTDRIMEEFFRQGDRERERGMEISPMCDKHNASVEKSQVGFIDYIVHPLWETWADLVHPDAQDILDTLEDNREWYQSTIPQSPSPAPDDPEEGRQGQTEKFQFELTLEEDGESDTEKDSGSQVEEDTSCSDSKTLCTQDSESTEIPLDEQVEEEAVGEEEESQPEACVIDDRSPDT
Chain of cGMP-inhibited 3',5'-cyclic phosphodiesterase 3A (Q14432 whole entry): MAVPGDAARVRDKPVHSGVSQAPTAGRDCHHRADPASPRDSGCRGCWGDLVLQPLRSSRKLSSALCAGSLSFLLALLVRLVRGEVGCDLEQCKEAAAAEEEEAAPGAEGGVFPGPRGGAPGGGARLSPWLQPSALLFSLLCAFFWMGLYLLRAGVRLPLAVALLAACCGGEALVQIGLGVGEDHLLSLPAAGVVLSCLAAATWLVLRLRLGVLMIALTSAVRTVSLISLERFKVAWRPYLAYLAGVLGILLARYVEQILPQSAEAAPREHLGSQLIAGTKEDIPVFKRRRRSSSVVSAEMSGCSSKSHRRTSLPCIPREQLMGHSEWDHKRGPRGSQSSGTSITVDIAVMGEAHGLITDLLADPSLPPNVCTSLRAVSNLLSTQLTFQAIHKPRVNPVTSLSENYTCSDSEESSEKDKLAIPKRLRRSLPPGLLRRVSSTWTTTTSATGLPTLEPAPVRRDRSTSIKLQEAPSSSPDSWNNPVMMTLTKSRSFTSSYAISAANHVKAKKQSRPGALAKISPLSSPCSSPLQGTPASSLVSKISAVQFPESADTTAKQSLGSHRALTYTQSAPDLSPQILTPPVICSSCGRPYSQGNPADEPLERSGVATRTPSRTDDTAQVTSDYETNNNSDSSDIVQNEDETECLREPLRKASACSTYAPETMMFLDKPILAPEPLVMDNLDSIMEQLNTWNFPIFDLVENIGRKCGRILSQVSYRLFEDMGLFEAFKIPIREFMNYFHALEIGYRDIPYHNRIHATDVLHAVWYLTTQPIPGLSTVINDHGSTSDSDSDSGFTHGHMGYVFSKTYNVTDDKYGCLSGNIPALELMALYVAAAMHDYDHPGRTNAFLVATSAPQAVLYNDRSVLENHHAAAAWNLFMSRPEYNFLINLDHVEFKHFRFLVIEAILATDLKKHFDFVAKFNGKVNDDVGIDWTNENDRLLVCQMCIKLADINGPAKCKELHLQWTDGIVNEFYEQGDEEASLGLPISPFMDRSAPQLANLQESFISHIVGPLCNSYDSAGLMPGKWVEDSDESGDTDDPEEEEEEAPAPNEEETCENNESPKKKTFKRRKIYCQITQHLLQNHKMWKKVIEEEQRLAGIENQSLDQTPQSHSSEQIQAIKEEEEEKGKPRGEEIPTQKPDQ
Chain of Beta-2 adrenergic receptor (P07550 whole entry): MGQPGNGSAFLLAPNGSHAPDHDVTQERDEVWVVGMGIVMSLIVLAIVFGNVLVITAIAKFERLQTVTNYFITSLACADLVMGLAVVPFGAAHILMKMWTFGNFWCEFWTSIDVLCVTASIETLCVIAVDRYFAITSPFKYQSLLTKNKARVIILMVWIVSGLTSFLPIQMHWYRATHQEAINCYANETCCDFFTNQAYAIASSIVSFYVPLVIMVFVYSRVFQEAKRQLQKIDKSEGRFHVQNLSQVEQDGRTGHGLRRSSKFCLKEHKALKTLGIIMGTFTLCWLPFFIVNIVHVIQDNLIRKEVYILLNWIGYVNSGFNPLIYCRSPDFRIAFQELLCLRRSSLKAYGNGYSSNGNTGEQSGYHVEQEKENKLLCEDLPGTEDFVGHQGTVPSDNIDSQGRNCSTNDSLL
Chain of Adenosine receptor A2a (P29274 whole entry): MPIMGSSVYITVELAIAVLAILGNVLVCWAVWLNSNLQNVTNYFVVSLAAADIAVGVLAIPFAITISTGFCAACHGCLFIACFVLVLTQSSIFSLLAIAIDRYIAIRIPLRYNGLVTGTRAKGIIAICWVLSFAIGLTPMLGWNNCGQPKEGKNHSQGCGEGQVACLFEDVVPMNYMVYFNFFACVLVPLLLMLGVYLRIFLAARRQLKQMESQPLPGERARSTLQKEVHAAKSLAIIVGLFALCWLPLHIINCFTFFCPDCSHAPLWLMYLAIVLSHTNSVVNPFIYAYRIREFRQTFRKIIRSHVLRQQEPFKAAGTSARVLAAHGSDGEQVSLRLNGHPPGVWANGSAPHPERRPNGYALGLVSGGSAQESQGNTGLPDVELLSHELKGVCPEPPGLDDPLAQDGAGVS
Chain of Vasopressin V1a receptor (P37288 whole entry): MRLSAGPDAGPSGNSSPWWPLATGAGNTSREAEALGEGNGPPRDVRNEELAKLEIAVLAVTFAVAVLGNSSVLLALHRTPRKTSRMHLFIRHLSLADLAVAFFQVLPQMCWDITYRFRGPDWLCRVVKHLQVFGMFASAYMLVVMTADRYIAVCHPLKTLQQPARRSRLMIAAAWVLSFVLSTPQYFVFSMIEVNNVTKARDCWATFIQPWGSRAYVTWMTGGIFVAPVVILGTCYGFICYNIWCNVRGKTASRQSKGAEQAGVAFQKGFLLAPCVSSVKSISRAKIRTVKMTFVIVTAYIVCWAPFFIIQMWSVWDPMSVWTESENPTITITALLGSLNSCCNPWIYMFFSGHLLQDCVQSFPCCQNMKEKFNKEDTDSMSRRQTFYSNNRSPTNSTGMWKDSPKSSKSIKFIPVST
Chain of Gamma-aminobutyric acid receptor subunit alpha-1 (P62813 whole entry): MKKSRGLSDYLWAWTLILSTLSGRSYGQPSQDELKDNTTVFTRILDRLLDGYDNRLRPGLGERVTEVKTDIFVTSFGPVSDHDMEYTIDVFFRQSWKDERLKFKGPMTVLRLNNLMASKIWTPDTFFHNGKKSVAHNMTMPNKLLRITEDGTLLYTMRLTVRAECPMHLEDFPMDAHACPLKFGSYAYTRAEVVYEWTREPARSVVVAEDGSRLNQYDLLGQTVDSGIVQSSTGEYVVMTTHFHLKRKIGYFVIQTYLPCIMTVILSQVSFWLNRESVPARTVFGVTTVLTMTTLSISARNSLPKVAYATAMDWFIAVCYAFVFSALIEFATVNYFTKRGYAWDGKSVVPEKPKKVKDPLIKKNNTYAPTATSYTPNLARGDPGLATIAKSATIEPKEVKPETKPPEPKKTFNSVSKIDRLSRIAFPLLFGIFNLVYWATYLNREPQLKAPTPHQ
Chain of Motilin receptor (O43193 whole entry): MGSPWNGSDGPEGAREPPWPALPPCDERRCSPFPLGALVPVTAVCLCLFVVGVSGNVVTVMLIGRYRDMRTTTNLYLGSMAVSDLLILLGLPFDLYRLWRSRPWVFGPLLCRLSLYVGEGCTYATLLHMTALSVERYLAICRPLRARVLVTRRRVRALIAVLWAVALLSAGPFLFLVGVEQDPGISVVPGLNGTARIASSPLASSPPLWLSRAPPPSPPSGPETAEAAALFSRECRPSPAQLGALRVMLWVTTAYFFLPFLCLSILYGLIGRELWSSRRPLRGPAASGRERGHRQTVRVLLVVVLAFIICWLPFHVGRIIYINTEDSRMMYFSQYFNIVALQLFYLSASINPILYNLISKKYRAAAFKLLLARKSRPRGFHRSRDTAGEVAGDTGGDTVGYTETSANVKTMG
Chain of Mu-type opioid receptor (P35372 whole entry): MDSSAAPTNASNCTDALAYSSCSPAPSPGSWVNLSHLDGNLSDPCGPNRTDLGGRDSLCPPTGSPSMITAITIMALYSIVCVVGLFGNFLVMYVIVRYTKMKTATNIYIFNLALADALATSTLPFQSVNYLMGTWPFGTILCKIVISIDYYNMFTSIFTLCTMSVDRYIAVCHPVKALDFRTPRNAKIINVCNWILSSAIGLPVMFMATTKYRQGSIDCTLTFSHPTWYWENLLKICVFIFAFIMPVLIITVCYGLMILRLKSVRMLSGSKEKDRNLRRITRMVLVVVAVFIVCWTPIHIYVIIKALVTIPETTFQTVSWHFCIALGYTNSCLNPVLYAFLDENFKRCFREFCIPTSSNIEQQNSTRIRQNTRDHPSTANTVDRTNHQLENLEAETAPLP

Row | SMILES | AC50 (Adenosine receptor A2a) [µM] | AC50 (Adenosine receptor A3 [1]) [µM] | AC50 (Adenosine receptor A3 [2]) [nM] | AC50 [3] [µM] | AC50 [4] [µM] | AC50 [5] [µM] | AC50 (Vasopressin V1a receptor) [µM] | AC50 [6] [µM] | AC50 [7] [µM] | AC50 [8] [µM] | AC50 (Motilin receptor) [µM] | AC50 [9] [µM] | AC50 (Mu-type opioid receptor) [µM] | AC50 [10] [µM] | AC50 [11] [µM] | AC50 [12] [µM]
1 | COc1cc2nccc(Oc3ccc(NC(=O)C4(C(=O)Nc5ccc(F)cc5)CC4)cc3)c2cc1OC [CABOZANTINIB] | > 30 | 3.7 | 379 | > 30 | 9.03 | > 30 | > 30 | > 30 | > 30 | 5.8 | > 30 | 10 | > 30 | > 30 | > 30 | –
2 | CC(=O)O[C@]1(C(C)=O)CC[C@H]2[C@@H]3C=C(C)C4=CC(=O)CC[C@@H]4[C@H]3CC[C@@]21C [NOMEGESTROL ACETATE] | > 30 | > 30 | – | > 30 | > 10 | > 30 | – | > 30 | > 30 | > 30 | – | 14 | – | > 30 | > 30 | > 30
